From the NIST ThermoML archive (doi:10.1021/je100715x)
Numbers after ± are expanded uncertainties.

Experiments:
[1] = 101.33 kPa, Liquid; for viscosity: Capillary tube (Ostwald / Ubbelohde) method; for mass density: Vibrating tube method
[2] = refractive index (Na D-line) (dimensionless); conditions: 101.33 kPa, Liquid, Standard Abbe refractometry

Row | Compound | viscosity ([1]; 303.15 K) [mPa·s] | mass density ([1]; 303.15 K) [kg/m3] | viscosity ([1]; 308.15 K) [mPa·s] | mass density ([1]; 308.15 K) [kg/m3] | viscosity ([1]; 313.15 K) [mPa·s] | mass density ([1]; 313.15 K) [kg/m3] | refractive index ([2]; 303.15 K) | refractive index ([2]; 308.15 K) | refractive index ([2]; 313.15 K) | refractive index ([2]; 298.15 K)
1 | CC(=O)c1ccccc1 [acetophenone] | 1.518 ± 0.02 | 1019.9 ± 0.3 | 1.378 ± 0.018 | 1016.9 ± 0.3 | 1.291 ± 0.016 | 1013.5 ± 0.3 | 1.5294 ± 0.0004 | 1.527 ± 0.0004 | 1.525 ± 0.0004 | –
2 | O=C1CCCCC1 [cyclohexanone] | 1.816 ± 0.023 | 937.7 ± 0.4 | 1.657 ± 0.021 | 932.8 ± 0.4 | 1.542 ± 0.02 | 928.2 ± 0.4 | 1.4465 ± 0.0004 | 1.444 ± 0.0004 | 1.442 ± 0.0004 | –
3 | O=C1CCCC1 [cyclopentanone] | 0.999 ± 0.013 | 938.5 ± 0.4 | 0.927 ± 0.012 | 933.9 ± 0.4 | 0.865 ± 0.011 | 929 ± 0.4 | 1.4335 ± 0.0004 | 1.431 ± 0.0004 | 1.429 ± 0.0004 | 1.4352 ± 0.0004
4 | CCOC(=O)C(=O)OCC [diethyl ethanedioate] | 1.623 ± 0.021 | 1066.1 ± 0.4 | 1.48 ± 0.019 | 1060.5 ± 0.4 | 1.367 ± 0.018 | 1054.5 ± 0.4 | 1.4063 ± 0.0004 | 1.404 ± 0.0004 | 1.402 ± 0.0004 | –
5 | CCC(=O)CC [pentan-3-one] | 0.429 ± 0.006 | 805.7 ± 0.3 | 0.397 ± 0.005 | 801.7 ± 0.3 | 0.388 ± 0.005 | 797.7 ± 0.4 | 1.3879 ± 0.0004 | 1.3857 ± 0.0004 | 1.3835 ± 0.0004 | –
